Among the targets are TYK2 (Homo sapiens, UniProt P29597); JAK2 (Homo sapiens, UniProt O60674); JAK1 (Homo sapiens, UniProt P23458).
Holding throughout (experiment): radiometric kinase assay with peptide substrate
Common to all, as to format: biochemical

The next assay concerns the target T1, JAK3 (Homo sapiens, UniProt P52333).
T1 sequence (P52333 1-1124): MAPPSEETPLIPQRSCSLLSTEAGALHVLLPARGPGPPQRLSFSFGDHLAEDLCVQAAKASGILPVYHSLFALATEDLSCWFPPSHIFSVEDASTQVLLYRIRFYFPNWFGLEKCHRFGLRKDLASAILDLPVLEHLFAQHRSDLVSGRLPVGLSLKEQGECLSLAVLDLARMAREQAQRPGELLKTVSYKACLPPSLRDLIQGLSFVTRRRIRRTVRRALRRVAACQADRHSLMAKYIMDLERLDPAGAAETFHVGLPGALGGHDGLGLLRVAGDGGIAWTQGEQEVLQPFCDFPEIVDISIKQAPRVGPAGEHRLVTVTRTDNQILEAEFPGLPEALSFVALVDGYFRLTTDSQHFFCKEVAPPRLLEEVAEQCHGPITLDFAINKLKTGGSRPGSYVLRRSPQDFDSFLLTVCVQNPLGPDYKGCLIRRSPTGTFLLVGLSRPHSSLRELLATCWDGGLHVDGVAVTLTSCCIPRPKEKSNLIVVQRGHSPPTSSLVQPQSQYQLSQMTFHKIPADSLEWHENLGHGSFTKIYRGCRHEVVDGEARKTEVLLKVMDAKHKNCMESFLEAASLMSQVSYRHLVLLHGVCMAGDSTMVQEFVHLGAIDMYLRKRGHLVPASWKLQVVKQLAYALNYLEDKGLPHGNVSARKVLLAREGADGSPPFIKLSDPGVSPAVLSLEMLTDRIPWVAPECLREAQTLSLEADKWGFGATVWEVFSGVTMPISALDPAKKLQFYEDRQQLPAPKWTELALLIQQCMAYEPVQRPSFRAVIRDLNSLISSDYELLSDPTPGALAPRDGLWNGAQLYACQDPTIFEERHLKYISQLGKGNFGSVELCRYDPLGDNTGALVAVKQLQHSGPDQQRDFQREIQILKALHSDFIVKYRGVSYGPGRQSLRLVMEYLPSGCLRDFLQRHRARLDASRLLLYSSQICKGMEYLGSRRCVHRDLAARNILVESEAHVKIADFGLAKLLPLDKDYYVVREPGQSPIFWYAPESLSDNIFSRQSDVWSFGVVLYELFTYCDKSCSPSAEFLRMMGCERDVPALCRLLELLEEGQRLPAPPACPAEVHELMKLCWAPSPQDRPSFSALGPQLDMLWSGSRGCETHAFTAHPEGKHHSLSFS

The results in this text go back to PMC7108927, “TYK2 inhibition reduces type 3 immunity and modifies disease progression in murine spondyloarthritis” (The Journal of Clinical Investigation, 2020).

JAK2, sequence (O60674 whole entry): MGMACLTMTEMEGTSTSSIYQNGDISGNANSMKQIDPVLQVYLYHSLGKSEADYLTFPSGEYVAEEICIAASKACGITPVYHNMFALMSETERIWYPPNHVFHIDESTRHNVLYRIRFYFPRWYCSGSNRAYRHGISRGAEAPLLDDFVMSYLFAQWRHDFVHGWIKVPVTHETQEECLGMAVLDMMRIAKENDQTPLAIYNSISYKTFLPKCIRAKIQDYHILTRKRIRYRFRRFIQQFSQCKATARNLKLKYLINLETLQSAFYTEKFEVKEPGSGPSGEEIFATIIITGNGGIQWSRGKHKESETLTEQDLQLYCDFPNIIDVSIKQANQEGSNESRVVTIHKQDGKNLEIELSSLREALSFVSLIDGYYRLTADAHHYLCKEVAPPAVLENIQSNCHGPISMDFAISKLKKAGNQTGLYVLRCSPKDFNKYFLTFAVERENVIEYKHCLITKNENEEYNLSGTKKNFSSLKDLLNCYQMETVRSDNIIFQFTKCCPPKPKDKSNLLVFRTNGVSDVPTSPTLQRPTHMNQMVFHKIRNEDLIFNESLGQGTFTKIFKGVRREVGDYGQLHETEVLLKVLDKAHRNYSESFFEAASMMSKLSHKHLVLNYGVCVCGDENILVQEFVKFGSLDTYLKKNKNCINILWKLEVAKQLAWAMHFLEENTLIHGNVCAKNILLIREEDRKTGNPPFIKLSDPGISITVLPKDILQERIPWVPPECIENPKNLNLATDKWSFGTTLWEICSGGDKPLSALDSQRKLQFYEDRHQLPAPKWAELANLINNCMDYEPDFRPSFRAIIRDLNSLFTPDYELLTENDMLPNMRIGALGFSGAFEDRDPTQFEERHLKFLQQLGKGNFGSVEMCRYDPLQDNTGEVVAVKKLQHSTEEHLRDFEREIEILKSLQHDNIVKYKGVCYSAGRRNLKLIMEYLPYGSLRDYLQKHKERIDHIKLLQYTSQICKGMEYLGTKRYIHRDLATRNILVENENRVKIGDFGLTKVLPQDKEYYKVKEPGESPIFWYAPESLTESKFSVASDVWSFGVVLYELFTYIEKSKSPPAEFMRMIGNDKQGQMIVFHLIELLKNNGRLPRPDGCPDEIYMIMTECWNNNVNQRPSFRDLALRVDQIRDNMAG
TYK2, sequence (P29597 whole entry): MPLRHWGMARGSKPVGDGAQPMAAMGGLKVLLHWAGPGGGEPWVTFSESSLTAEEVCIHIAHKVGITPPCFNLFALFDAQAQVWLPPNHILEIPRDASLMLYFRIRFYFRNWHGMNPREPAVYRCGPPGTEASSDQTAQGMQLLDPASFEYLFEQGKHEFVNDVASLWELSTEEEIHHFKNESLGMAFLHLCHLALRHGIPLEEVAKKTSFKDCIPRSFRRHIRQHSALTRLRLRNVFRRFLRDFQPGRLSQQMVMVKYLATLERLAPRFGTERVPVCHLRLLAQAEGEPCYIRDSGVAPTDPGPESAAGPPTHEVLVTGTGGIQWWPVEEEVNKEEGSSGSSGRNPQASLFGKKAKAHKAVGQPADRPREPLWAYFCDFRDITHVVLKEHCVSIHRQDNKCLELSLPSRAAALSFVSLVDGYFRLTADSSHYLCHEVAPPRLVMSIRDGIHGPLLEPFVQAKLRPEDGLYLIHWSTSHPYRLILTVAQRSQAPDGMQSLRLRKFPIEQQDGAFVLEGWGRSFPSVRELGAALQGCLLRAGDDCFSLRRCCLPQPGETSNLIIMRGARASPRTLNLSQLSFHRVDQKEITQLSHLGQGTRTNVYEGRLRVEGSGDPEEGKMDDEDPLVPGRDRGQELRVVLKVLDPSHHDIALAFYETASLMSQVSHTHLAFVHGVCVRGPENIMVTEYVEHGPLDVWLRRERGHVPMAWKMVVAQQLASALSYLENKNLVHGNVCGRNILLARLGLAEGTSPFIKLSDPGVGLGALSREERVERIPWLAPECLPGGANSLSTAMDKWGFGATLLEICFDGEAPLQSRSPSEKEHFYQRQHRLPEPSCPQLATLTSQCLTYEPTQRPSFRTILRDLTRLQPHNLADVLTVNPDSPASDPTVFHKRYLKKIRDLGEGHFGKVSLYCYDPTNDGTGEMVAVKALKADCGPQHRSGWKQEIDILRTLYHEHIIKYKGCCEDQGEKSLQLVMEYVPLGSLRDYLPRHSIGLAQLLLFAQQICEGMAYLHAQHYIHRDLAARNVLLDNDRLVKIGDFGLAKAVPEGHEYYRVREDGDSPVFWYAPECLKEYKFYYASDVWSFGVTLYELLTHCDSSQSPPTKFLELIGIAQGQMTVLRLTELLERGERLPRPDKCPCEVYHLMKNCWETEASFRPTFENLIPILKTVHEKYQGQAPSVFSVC
JAK1, sequence (P23458 whole entry): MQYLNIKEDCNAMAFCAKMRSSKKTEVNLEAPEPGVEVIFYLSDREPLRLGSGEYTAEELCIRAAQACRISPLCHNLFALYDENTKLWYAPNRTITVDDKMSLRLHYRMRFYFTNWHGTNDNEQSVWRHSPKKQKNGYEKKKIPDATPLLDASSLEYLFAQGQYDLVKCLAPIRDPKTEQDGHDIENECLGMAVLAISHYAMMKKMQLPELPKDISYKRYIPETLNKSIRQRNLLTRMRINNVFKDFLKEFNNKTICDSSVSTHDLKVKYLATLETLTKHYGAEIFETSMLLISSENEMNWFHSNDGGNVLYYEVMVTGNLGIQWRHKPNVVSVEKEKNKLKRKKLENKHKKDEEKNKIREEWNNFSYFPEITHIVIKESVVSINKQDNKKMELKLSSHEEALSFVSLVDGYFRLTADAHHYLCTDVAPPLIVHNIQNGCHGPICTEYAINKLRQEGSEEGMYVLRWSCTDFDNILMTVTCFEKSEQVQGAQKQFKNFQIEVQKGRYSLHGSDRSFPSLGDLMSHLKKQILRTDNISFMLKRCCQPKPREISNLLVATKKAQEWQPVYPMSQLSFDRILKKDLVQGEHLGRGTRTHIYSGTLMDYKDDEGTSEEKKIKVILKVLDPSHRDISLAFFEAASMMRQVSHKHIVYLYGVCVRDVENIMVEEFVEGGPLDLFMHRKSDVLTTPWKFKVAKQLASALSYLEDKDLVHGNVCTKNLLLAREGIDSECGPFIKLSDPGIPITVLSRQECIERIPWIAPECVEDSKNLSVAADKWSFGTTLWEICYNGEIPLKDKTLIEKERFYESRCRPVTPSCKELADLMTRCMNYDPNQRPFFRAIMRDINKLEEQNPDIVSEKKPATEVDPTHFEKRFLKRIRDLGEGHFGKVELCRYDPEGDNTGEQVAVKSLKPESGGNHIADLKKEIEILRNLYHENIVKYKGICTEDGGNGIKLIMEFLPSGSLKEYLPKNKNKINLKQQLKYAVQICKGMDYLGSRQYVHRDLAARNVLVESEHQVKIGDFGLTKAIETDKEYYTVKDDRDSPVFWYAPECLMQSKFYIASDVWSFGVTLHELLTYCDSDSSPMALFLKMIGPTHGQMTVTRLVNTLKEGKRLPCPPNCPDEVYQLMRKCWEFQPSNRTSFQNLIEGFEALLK

NDI-031407: the IC50 (usually the concentration that inhibits the measured activity by half) at TYK2 was 0.21 nM; against JAK2, 31 nM; at JAK3, 4.2 nM; at JAK1 it was 46 nM.
